From patent US20070098693A1, “Methods for enhancing engraftment of purified hematopoietic stem cells in allogenic recipients” (priority 2003, published 2007)

Key:
Assay type in all cases: cell-based, mice
CD8^+/TCR^− FC [1] = test: CpG ODN / LPS stimulation of sorted FC, cytokine production by ELISA / multiplex
Method: (§1) CpG oligodeoxynucleotides (ODN) stimulation. Sorted p-preDC or FC were cultured for 18 hours at 10^5 cells/200 μL in 96 well round-bottom culture plates in culture medium in the presence or absence of Toll-like receptor (TLR)-9 ligand, CPG-ODN 1668 (TCCATGACGTTCCGATGCT) (SEQ ID NO. 1) (GibcoBRL Custom Primers) at 1 μM, TLR-4 ligand, LPS from Escherichia coli (Sigma, MO, USA) at 10 μg/ml, as previously described^30. CpG or LPS-treated or untreated cells were subsequently assayed for: 1) the expression of DC activation/maturation cell surface markers by FACS, 2) their survival rate by 7AAD staining, or 3) morphological appearance by Wright Giemsa staining on cytospins. The supernatant of these cultures were collected for analysis of the production of different cytokines by ELISA.
Cytokine production by ELISA. Briefly, the cell-free supernatants of 12H, 18H, or 24H cultured cells (FC or p-preDC,) with or without CpG ODN or LPS were collected and kept frozen at −80° C. The amount of cytokine produced was determined by 1) ELISA kits for mouse IFN-α (R&D system) and mouse TNF-α (Biosource International), and 2). Multiplex for MIP 1αCCL3), GM-CSF, MCP-1 (CCL2), RANTES (CCL5), IFN-γ, IL-1β, IL-2, IL-4, IL-5, IL-6, IL-10, IL-12p70, IL-9, and IL13 on 18 hour incubation supernatants from three different experiments performed by Linco Diagnostic Services (St. Charles, Mo.).

CD8^+/TCR^− FC [2] = test: Activation marker expression on sorted FC after 18 h culture (FACS)
Text: (§2) mAbs and Flow cytometry. The following mAbs (all from BD Biosciences Pharmingen, San Diego, Calif., except those labeled with APC-cy-7 from eBioscience, San Diego, Calif.) were used. To sort CD8^+/TCR^− FC: anti-CD8α (53-6.7) PE-labeled, anti-TCR β chain (H57-597) and anti-TCR γδ chain (GL3) FITC-labeled. To sort B220^+/CD11c^dim/CD11b^− p-preDC: anti-CD11b (M1/70) APC-labeled, anti-CD45R/B220 (RA3-6B2) APC-Cy7-labeled, anti-CD11c (HL3) PE-labeled, and anti-TCR β chain (H57-597), anti-TCR γδ chain (GL3), anti-CD14 (rmC5-3), anti-CD19 (1D3), anti-Pan-NK cells (DX5), and anti-NK1.1 (PK136), all FITC-labeled. To sort HSC: anti-TCR β chain (H57-597), anti-TCR γδ chain (GL3), anti-Ly-6G (Gr-1), anti-CD11b, Mac1 (M1/70), anti-CD8α (53-6.7) and anti-CD45R/B220 (RA3-6B2), all FITC-labeled, anti-Ly-6A/E (Sca-1) (E13-161.7) PE-labeled and anti-c-Kit (CD117) (2B8) APC-labeled. To restain the sorted FC population: purified anti-CD16/CD32 (FcγIII/II receptors) (2.4G2), anti-CD11c (HL3), anti-CD4 (RM4-5) and anti-CD19 (1D3) all APC-labeled, anti-CD45R/B220 (RA3-6B2) PerCP-labeled, and anti-Pan-NK cells (DX5), anti-NK1.1 (PK136), anti-CD14 (rmC5-3), and anti-Ly-6G (Gr-1) FITC-labeled. To analyze the activation state: anti-CD80 (B7-1) ([…]), anti-CD86 (B7-2) ([…]), and anti-I-A^b (Aβ^b) (AF6-120.1) FITC-labeled. For PBL typing and multilineage chimerism: anti-H-2 K^b (AF6-88.5) PE or FITC-labeled, anti-H-2K^k (36-7-5) PE or FITC-labeled, anti-TCR β chain (H57-597), anti-NK1.1 (PK136), anti-Ly-6G (Gr-1), anti-CD11b, Mac1 (M1/70) and anti-CD45R/B220 (RA3-6B2) all FITC-labeled. Detection of dead cells after cell culture was determined by using a 7-Amino-actinomycin D (7-AAD) (Molecular Probes, Eugene, Oreg.) followed by FACS analysis.
as §1

[3] = test system: B220^+/CD11c^dim/CD11b^− p-preDC; test: Activation marker expression on sorted p-preDC after 18 h culture (FACS)
Text: as §2, §1

CD8^+/TCR^− FC [4] = test: Cell death of sorted FC after overnight culture (7AAD staining)
Text: as §2, §1

[5] = test system: B220^+/CD11c^dim/CD11b^− p-preDC; test: Cell death of sorted p-preDC after overnight culture (7AAD staining)
Text: as §2
CpG oligodeoxynucleotides (ODN) stimulation. […]

[6] = CpG ODN stimulation, 18 hours, multiplex
[7] = FL-derived FC and FL-derived p-preDC (FIG. 4c), CpG-ODN overnight
[8] = after culture with medium or CpG stimulation
[9] = FL-derived FC, CpG ODN exposure overnight
[10] = fresh BM FC, overnight exposure to CpG ODN, n=4
[11] = FL-derived p-preDC, CpG ODN exposure overnight
[12] = fresh BM p-preDC, overnight exposure to CpG ODN, n=2
[13] = fresh FC, overnight culture with CpG

Substance: CpG ODN: Toll-like receptor (TLR)-9 ligand, CPG-ODN 1668 (TCCATGACGTTCCGATGCT) (SEQ ID NO. 1) (DNA, backbone and methylation of C not given here)
- IL-6 production by FC (CD8^+/TCR^− FC [1]; [6]): moderate amounts
- IL-12p70 production by FC (CD8^+/TCR^− FC [1]; [6]): low levels
- Mip1-α/CCL3 production by FC (CD8^+/TCR^− FC [1]; [6]): high amounts
- RANTES/CCL5 production by FC (CD8^+/TCR^− FC [1]; [6]): moderate amounts
- TNF-α production by FC (CD8^+/TCR^− FC [1]; CpG ODN stimulation, 24 hours, ELISA): large amounts
- IFN-α secretion of FL-derived cells after CpG-ODN (CD8^+/TCR^− FC [1]; [7]): increased further
- IL-12p70 production of FL-derived cells after CpG-ODN (CD8^+/TCR^− FC [1]; [7]): increased further
- TNF-α production of FL-derived cells after CpG-ODN (CD8^+/TCR^− FC [1]; [7]): increased further
- GM-CSF production by FC (CD8^+/TCR^− FC [1]; [8]): no
- IFN-γ production by FC (CD8^+/TCR^− FC [1]; [8]): low amounts
- IL9 production by FC (CD8^+/TCR^− FC [1]; [8]): low amounts
- IL-1β production by FC (CD8^+/TCR^− FC [1]; [8]): no
- IL-2 production by FC (CD8^+/TCR^− FC [1]; [8]): no
- IL-4 production by FC (CD8^+/TCR^− FC [1]; [8]): no
- IL-5 production by FC (CD8^+/TCR^− FC [1]; [8]): no
- IL-10 production by FC (CD8^+/TCR^− FC [1]; [8]): low amounts
- IL-13 production by FC (CD8^+/TCR^− FC [1]; [8]): no
- MCP-1/CCL2 production by FC (CD8^+/TCR^− FC [1]; [8]): low amounts
- IFN-α production by FC (CD8^+/TCR^− FC [1]; sorted bone marrow FC cultured with stimulus, ELISA): levels similar to those produced by p-preDC
- CD80 expression on FL-derived FC after CpG ODN (CD8^+/TCR^− FC [2]; [9]): 48%
- CD86 expression on FL-derived FC after CpG ODN (CD8^+/TCR^− FC [2]; [9]): 77%
- Class II expression on FL-derived FC after CpG ODN (CD8^+/TCR^− FC [2]; [9]): 73%
- CD80 expression on FC (CD8^+/TCR^− FC [2]; [10]): 23.5±8%
- CD86 expression on FC (CD8^+/TCR^− FC [2]; [10]): 86±12%
- Class II expression on FC (CD8^+/TCR^− FC [2]; [10]): 74±6.5%
- CD80 expression on FL-derived p-preDC after CpG ODN [3, 11]: 63%
- CD86 expression on FL-derived p-preDC after CpG ODN [3, 11]: 87%
- Class II expression on FL-derived p-preDC after CpG ODN [3, 11]: 88%
- CD80 expression on p-preDC [3, 12]: 12.5±1%
- CD86 expression on p-preDC [3, 12]: 85±13%
- Class II expression on p-preDC [3, 12]: 39±4%
- decrease of mortality of FL-treated FC (CD8^+/TCR^− FC [4]; FL-derived FC, CpG ODN overnight versus medium): 10-15%
- decrease of FC mortality compared to media alone (CD8^+/TCR^− FC [4]; [13]): 10%
- mortality of FC (dead cells) (CD8^+/TCR^− FC [4]; [13]): 43.5±3.5%
- rescue of FL-derived p-preDC from death ([5]; CpG exposure (data not shown)): partially rescued
- mortality of p-preDC (dead) ([5]; fresh p-preDC, overnight culture with CpG): 35±0.3%
